From EP4799619A1, “COMPOUND TARGETING EGR-1 AND USE THEREOF FOR TREATMENT OF ATOPIC DERMATITIS” (AgeraMedi, Inc., priority 2023, dated 2025)

The molecules below were run against EGR-1 (Homo sapiens, UniProt P18146) (assay: EGR-1 DNA binding activity assay (EDBA)). Conditions: EGR-1 DNA binding inhibitory activity; EGR-1 overexpressing cell lysate; absorbance at 450 nm; compound concentration not given.
Parameters: made in house
Experimental: In this experiment, the inhibitory effect of the compounds of the present invention on EGR-1 binding activity was evaluated using an EGR-1 DNA binding activity assay (EDBA).
Single-stranded sense and antisense oligonucleotides of the following EGR-1 binding sequence (EBS) were prepared by outsourcing to Bioneer Co., Ltd. (Daejeon, Korea). In this case, the 5'-end of the sense oligonucleotide was labeled with biotin. The sense and antisense oligonucleotides were heated at 95 °C for 5 minutes and then left overnight at room temperature to hybridize the sense and antisense oligonucleotides. Hereinafter, the hybridized sense and antisense oligonucleotides are referred to as biotin-EBS. • Sense sequence: biotin-5'-[…]-3' • Antisense sequence: 5'-[…]-3'
Avidin protein was coated on a 96-well plate (purchased from Thermo Fisher Scientific), and biotin-EBS was added to the plate at a concentration of 0.5 pmol/50 µL/well, followed by reaction at 37 °C for 1 hour to allow biotin-EBS oligonucleotide to be attached to the plate. After washing three times with phosphate buffer saline containing 0.05% Tween 20 (PBS/Tween 20) to remove unattached biotin-EBS oligonucleotides, 200 µL of PBS/Tween 20 solution containing 2% bovine serum albumin (BSA) was added to each well, followed by reaction at 37 °C for 1 hour to block the surface of the plate where no oligonucleotide was attached.
The solution containing the sample compound and the EGR-1 protein was added to the biotin-EBS oligonucleotide coated plate prepared in step (2).
The compound sample (1 µL) was reacted with the EGR-1 overexpressing cell lysate containing 10 mM Tris, pH 7.5, 50 mM KCl, 2% BSA and 8% glycerol at room temperature for 30 minutes, and then added to a reaction well coated with biotin-EBS and further reacted at room temperature for one hour. After washing three times with PBS/Tween 20 solution, an EGR-1 antibody was added to the PBS solution supplemented with 2% BSA and 5 mM NaCl in an amount of 50 µL per each well. The mixture was incubated at room temperature for one hour, washed three times with PBS/Tween 20 solution, and then treated with horseradish peroxidase-conjugated secondary antibody (Goat anti-rabbit IgG antibody, Cell Signaling Technology company, Danvers, Mass., USA) diluted by 1:1000 at room temperature for one hour. After washing five times with PBS/Tween 20 solution, a substrate tetramethylbenzidine solution was added to each well in an amount of 50 µL. After reacting for 5 minutes, the reaction was stopped by adding 100 µL of 2 N sulfuric acid solution. The DNA binding inhibitory activity of EGR-1 was measured by absorbance at 450 nm according to Equation 1 below. EGR-1 DNA binding inhibitory activity (%) = 100−{(As/Ap)×100} [formula]
As: absorbance of a sample prepared by reacting an EGR-1-overexpressing cell lysate with the compound.
Ap: absorbance of the sample treated only with EGR-1-overexpressing cell lysate.

Chain of EGR-1 (P18146 whole entry): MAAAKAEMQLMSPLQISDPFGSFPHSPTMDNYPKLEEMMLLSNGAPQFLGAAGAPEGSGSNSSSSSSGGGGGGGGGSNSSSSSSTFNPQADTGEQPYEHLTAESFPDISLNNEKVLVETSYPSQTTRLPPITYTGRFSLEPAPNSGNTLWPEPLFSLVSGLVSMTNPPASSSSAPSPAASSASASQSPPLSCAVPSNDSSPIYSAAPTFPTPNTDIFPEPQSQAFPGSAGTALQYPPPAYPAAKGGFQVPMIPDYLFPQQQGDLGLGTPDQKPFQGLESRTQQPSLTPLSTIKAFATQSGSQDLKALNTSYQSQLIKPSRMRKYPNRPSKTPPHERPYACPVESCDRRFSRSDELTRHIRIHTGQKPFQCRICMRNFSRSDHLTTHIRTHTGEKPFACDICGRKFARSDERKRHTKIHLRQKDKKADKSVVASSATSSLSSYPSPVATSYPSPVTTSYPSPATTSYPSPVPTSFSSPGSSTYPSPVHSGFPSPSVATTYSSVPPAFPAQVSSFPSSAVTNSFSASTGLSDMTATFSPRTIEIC

| Compound | Inhibition Rate (%) |
| --- | --- |
| NNC(=S)Nc1cccc(C(F)(F)F)c1 [Compound 1, N-(3-(trifluoromethyl)phenyl)hydrazinethioamide] | 23.60% |
| NNC(=S)Nc1ccc(F)cc1 [Compound 2, N-(4-fluorophenyl)hydrazinethioamide] | 25.70% |
| NNC(=S)Nc1ccc(Br)cc1 [Compound 3, N-(4-bromophenyl)hydrazinethioamide] | 20.73% |
| N#Cc1ccc(NC(=S)NN)cc1 [Compound 4, N-(4-cyanophenyl)hydrazinethioamide] | 16.27% |
| NNC(=S)Nc1ccc(C(F)(F)F)cc1 [Compound 5, N-(4-(trifluoromethyl)phenyl)hydrazinethioamide] | 6.33% |
| CCNC(=S)NN [Compound 6, N-ethylhydrazinethioamide] | 27.00% |
| CC(C)NC(=S)NN [Compound 7, N-isopropylhydrazinethioamide] | 23.33% |
| CC(C)CNC(=S)NN [Compound 8, N-isobutylhydrazinethioamide] | 38.73% |
| NNC(=S)NC(=O)c1ccccc1 [Compound 9, N-(hydrazinocarbonothioyl)benzamide] | 42.17% |
| NNC(=S)NCc1ccccc1 [Compound 10, N-benzylhydrazinethioamide] | 35.47% |
| Cc1cccc(NC(=S)NN)c1 [Compound 11, N-(m-tolyl)hydrazinethioamide] | 18.67% |
| O=C1Nc2ccc(F)cc2/C1=N/NC(=S)Nc1ccccc1 [Compound 12, (Z)-2-(5-fluoro-2-oxoindolin-3-ylidene)-N-phenylhydrazinethioamide] | 28.97% |
| O=C1Nc2ccc(F)cc2/C1=N/NC(=S)Nc1cccc([N+](=O)[O-])c1 [Compound 13, (Z)-2-(5-fluoro-2-oxoindolin-3-ylidene)-N-(3-nitrophenyl)hydrazinethioamide] | 25.57% |
| O=C1Nc2ccc(F)cc2/C1=N/NC(=S)Nc1ccc(F)cc1 [Compound 14, (Z)-2-(5-fluoro-2-oxoindolin-3-ylidene)-N-(4-fluorophenyl)hydrazinethioamide] | 17.80% |
| O=C1Nc2ccc(F)cc2/C1=N/NC(=S)Nc1ccc(Br)cc1 [Compound 15, (Z)-N-(4-bromophenyl)-2-(5-fluoro-2-oxoindolin-3-ylidene)hydrazinethioamide] | 37.07% |
| N#Cc1ccc(NC(=S)N/N=C2\C(=O)Nc3ccc(F)cc32)cc1 [Compound 16, (Z)-N-(4-cyanophenyl)-2-(5-fluoro-2-oxoindolin-3-ylidene)hydrazinethioamide] | 40.57% |
| O=C1Nc2ccc(F)cc2/C1=N/NC(=S)Nc1ccc(C(F)(F)F)cc1 [Compound 17, (Z)-2-(5-fluoro-2-oxoindolin-3-ylidene)-N-(4-(trifluoromethyl)phenyl)hydrazinethioamide] | 25.57% |
| O=C1Nc2c(F)cccc2/C1=N/NC(=S)Nc1ccc(F)cc1 [Compound 18, (Z)-2-(7-fluoro-2-oxoindolin-3-ylidene)-N-(4-fluorophenyl)hydrazinethioamide] | 33.80% |
| O=C1Nc2c(F)cccc2/C1=N/NC(=S)Nc1ccc(Br)cc1 [Compound 19, (Z)-N-(4-bromophenyl)-2-(7-fluoro-2-oxoindolin-3-ylidene)hydrazinethioamide] | 47.77% |
| N#Cc1ccc(NC(=S)N/N=C2\C(=O)Nc3c(F)cccc32)cc1 [Compound 20, (Z)-N-(4-cyanophenyl)-2-(7-fluoro-2-oxoindolin-3-ylidene)hydrazinethioamide] | 44.93% |
| COc1ccc2c(c1)NC(=O)/C2=N\NC(=S)Nc1ccccc1 [Compound 22, (Z)-2-(6-methoxy-2-oxoindolin-3-ylidene)-N-phenylhydrazinethioamide] | 51.33% |
| COc1ccc2c(c1)NC(=O)/C2=N\NC(=S)Nc1ccccc1OC [Compound 24, (Z)-2-(6-methoxy-2-oxoindolin-3-ylidene)-N-(2-methoxyphenyl)hydrazin-1-carbothioamide] | 42.00% |
